How the values were obtained:
[1] = Selectivity for dog lungs PDE5 over light-activated bovine retina PDE6
[2] = molecular target: cGMP-specific 3',5'-cyclic phosphodiesterase (Canis lupus familiaris, UniProt O77746); assay: Inhibition of dog lungs PDE5 using [3H]cGMP as substrate after 30 mins by scintillation counting analysis
[3] = system: Corpus cavernosum; assay: Induction of relaxant effect in rabbit corpus cavernosum after 30 mins; format: functional, Oryctolagus cuniculus
[4] = organism: Homo sapiens; assay: Selectivity for PDE5 (unknown origin) over PDE8 (unknown origin)
[5] = organism: Homo sapiens; assay: Selectivity for PDE5 (unknown origin) over PDE7 (unknown origin)
[6] = organism: Homo sapiens; assay: Selectivity for PDE5 (unknown origin) over PDE6 (unknown origin)
[7] = organism: Homo sapiens; assay: Selectivity for PDE5 (unknown origin) over PDE11 (unknown origin)
[8] = organism: Homo sapiens; assay: Selectivity for PDE5 (unknown origin) over PDE3 (unknown origin)
[9] = organism: Homo sapiens; assay: Selectivity for PDE5 (unknown origin) over PDE4 (unknown origin)
[10] = organism: Homo sapiens; assay: Selectivity for PDE5 (unknown origin) over PDE1 (unknown origin)
[11] = organism: Homo sapiens; assay: Selectivity for PDE5 (unknown origin) over PDE9 (unknown origin)
[12] = organism: Homo sapiens; assay: Selectivity for PDE5 (unknown origin) over PDE2 (unknown origin)
[13] = organism: Homo sapiens; assay: Selectivity for PDE5 (unknown origin) over PDE10 (unknown origin)

Row | Compound | Selectivity ratio [1] | IC50 [2] [nM] | further results
1 | COc1ccc(CNc2nc(N3CCCCC3CO)ncc2C(=O)NCc2ccccn2)cc1Cl (configuration not stated) |  | 54 | 
2 | COc1ccc(CNc2nc(N3CCOC[C@H]3CO)ncc2C(=O)NCc2ncccn2)cc1Cl |  | > 100 | 
3 | COc1ccc(CNc2nc(OCc3ccccn3)ncc2C(=O)N(C)Cc2ccccn2)cc1Cl |  | 85 | 
4 | COc1ccc(CNc2nc(N3CCC(O)CC3)ncc2C(=O)NCc2ccccn2)cc1Cl |  | 59 | 
5 | COc1ccc(CNc2nc(N3CCC[C@H]3CO)ncc2C(=O)NCCCO)cc1Cl | 1500 | 6.6 | EC30 [3]: 4.9 nM
6 | COc1ccc(CNc2nc(OCc3ccccn3)ncc2C(=O)NCCCCO)cc1Cl | 480 | 12 | 
7 | COc1ccc(CNc2nc(OCc3ccccn3)ncc2C(=O)NCCCO)cc1Cl | 420 | 13 | 
8 | COc1ccc(CNc2nc(N3CCCC(CO)C3)ncc2C(=O)NCc2ncccn2)cc1Cl (configuration not stated) |  | 63 | 
9 | COc1ccc(CNc2nc(N(C)CCO)ncc2C(=O)NCc2ccccn2)cc1Cl |  | 32 | 
10 | COc1ccc(CNc2nc(N3CCC(CO)C3)ncc2C(=O)NCc2ncccn2)cc1Cl (configuration not stated) |  | 25 | 
11 | COc1ccc(CNc2nc(N3CCOC(CO)C3)ncc2C(=O)NCc2ccccn2)cc1Cl (configuration not stated) |  | 32 | 
12 | COc1ccc(CNc2nc(N3CCC[C@H]3CO)ncc2C(=O)NCc2ncccn2)cc1Cl [AVANAFIL] | 4000 |  | Selectivity ratio [4]: > 1000; Selectivity ratio [5]: > 1000; Selectivity ratio [6]: 121; Selectivity ratio [7]: > 19200; Selectivity ratio [8]: > 1000; EC30 [3]: 2.1 nM; Selectivity ratio [9]: > 1000; Selectivity ratio [10]: > 1000; Selectivity ratio [11]: > 1000; Selectivity ratio [12]: > 1000; Selectivity ratio [13]: > 1000
13 | CCCc1nn(C)c2c(=O)[nH]c(-c3cc(S(=O)(=O)N4CCN(C)CC4)ccc3OCC)nc12 |  |  | Selectivity ratio [6]: 16
14 | COCCCNC(=O)c1cnc(OCc2ccccn2)nc1NCc1ccc(OC)c(Cl)c1 | 240 | 15 | 
15 | CN1CC(=O)N2[C@H](c3ccc4c(c3)OCO4)c3[nH]c4ccccc4c3C[C@@H]2C1=O |  |  | Selectivity ratio [6]: 550; Selectivity ratio [7]: 25
16 | COc1ccc(CNc2nc(OCc3ccccn3)ncc2C(=O)NCc2ncccn2)cc1Cl | 720 | 12 | 
17 | COc1ccc(CNc2nc(N3CCC[C@@H]3CO)ncc2C(=O)NCc2ncccn2)cc1Cl |  | 36 | 
18 | CCCc1nc(C)c2c(=O)nc(-c3cc(S(=O)(=O)N4CCN(CC)CC4)ccc3OCC)[nH]n12 |  |  | Selectivity ratio [6]: 21
19 | COc1ccc(CNc2nc(N3Cc4ccccc4C[C@H]3CO)ncc2C(=O)NCc2ccccn2)cc1Cl |  | 6.5 | 

Continued by falling IC50 [2], values first:

Row | Selectivity ratio [1] | IC50 [2] [nM] | Compound | further results
20 | 2000 | 6.1 | COc1ccc(CNc2nc(N3CCC[C@H]3CO)ncc2C(=O)NCC2CN(C)CCO2)cc1Cl (some centres not stated) | EC30 [3]: 2.7 nM
21 | 630 | 5.6 | COc1ccc(CNc2nc(OCc3ccccn3)ncc2C(=O)NCCN2CCOCC2)cc1Cl | 
22 |  | 5.5 | CCOC(=O)c1cnc(OCc2ccccn2)nc1NCc1ccc(OC)c(Cl)c1 | EC30 [3]: 37 nM
23 |  | 5.2 | COc1ccc(CN=c2[nH]c(N3CCC[C@H]3CO)ncc2C(=O)NCc2ncccn2)cc1Cl [AVANAFIL] | 
24 | 640 | 4.2 | COc1ccc(CNc2nc(OCc3ccccn3)ncc2C(=O)OCc2ncccn2)cc1Cl | 
25 | 510 | 3.5 | COc1ccc(CNc2nc(OCc3ccccn3)ncc2C(=O)N[C@H]2CC[C@H](O)CC2)cc1Cl | 
26 | 480 | 2.7 | COc1ccc(CNc2nc(OCc3ccccn3)ncc2C(=O)NCc2ccccn2)cc1Cl | 
27 | 1000 | 2.1 | COc1ccc(CNc2nc(OCc3ccccn3)ncc2C(=O)OCc2ccccn2)cc1Cl | 
28 | 5600 | 1.8 | COc1ccc(CNc2nc(N3CCC[C@H]3CO)ncc2C(=O)N[C@H]2CC[C@H](O)CC2)cc1Cl | EC30 [3]: >100 nM
29 | 4300 | 1.2 | COc1ccc(CNc2nc(N3CCC[C@H]3CO)ncc2C(=O)NCc2ccccn2)cc1Cl | EC30 [3]: 22 nM
30 | 7700 | 0.9 | COc1ccc(CNc2nc(N3CCC[C@H]3CO)ncc2C(=O)N[C@H]2CC[C@H](OC)CC2)cc1Cl | EC30 [3]: 6.8 nM

Source: ChEMBL document CHEMBL3351410, “The discovery of avanafil for the treatment of erectile dysfunction: a novel pyrimidine-5-carboxamide derivative as a potent and highly selective phosphodiesterase 5 inhibitor” (Bioorg Med Chem Lett, 2014)
